In patent US20140206682A1, “COMPOUNDS AND COMPOSITIONS AS PDGFR KINASE INHIBITORS” (NOVARTIS PHARMACEUTICALS UK LIMITED, priority 2011, published 2014):

Tested on: PDGFR
Test: Rat A10 cell proliferation assay
Type: cell-based
Conditions: Table 2; Rat A10 cells, recombinant rat PDGF-BB, CellTiter-Glo after 68 hours
Protocol: Compounds of Formula (I) provided herein were assayed to measure their capacity to inhibit c-kit and PDGFR kinases using the appropriate assay described below: c-Kit inhibition was evaluated using the Mo7e cell proliferation assay, and PDGFR inhibition was evaluated using the Rat A10 cell proliferation assay and the Human TG/HA-VSMC cell proliferation assay.
Rat A10 cells (ATCC) were resuspended in DMEM supplemented with 1% FBS and 10 ng/mL recombinant rat PDGF-BB at 20,000 cells/mL. The cells were aliquoted into 384 well plates at 50 μL/well and incubated for 4 hours at 37° C. 0.5 μL of test compound 3-fold serially diluted in DMSO was added to each well. The plates were returned to the incubator for a further 68 hours. 25 μL of CellTiter-Glo (Promega) was added to each well and the plates were incubated on the bench for 15 minutes. Luminescence was then read using a CLIPR CCD camera (Molecular Devices).

| Compound | IC50 |
| --- | --- |
| [2H]c1c([2H])c([2H])n2c(C(=O)Nc3cc(C(=O)N[C@H]4c5ccccc5C[C@H]4O)ccc3F)cnc2c1[2H] [F55, N-(2-fluoro-5-{[(1S,2R)-2-hydroxy-2,3-dihydro-1H-inden-1-yl]carbamoyl}phenyl)-5,6,7,8-tetrahydrogenioimidazo[1,2-a]pyridine-3-carboxamide] | 484 nM |
| O=C(N[C@@H]1CCCC[C@H]1O)c1ccc(F)c(NC(=O)c2cnc3ccccn23)c1 [F56, N-(2-fluoro-5-{[(1R,2R)-2-hydroxycyclohexyl]carbamoyl}phenyl)imidazo[1,2-a]pyridine-3-carboxamide] | 521 nM |
| CCC[C@@H](CO)NC(=O)c1cccc(NC(=O)c2cnc3ccccn23)c1 [F57, N-(3-{[(2S)-1-hydroxypentan-2-yl]carbamoyl}phenyl)imidazo[1,2-a]pyridine-3-carboxamide] | 522 nM |
| O=C(N[C@H]1CCCC[C@H]1CO)c1ccc(F)c(NC(=O)c2cnc3ccccn23)c1 [F59] | 603 nM |
| O=C(N[C@H]1c2ccccc2C[C@H]1O)c1ccc(F)c(NC(=O)c2cnc3cc(F)ccn23)c1 [F60, 7-fluoro-N-(2-fluoro-5-{[(1S,2R)-2-hydroxy-2,3-dihydro-1H-inden-1-yl]carbamoyl}phenyl)imidazo[1,2-a]pyridine-3-carboxamide] | 609 nM |
| O=C(NCC(O)C(F)(F)F)c1ccc(F)c(NC(=O)c2cnc3ccccn23)c1 (centres unmarked) [F63, N-{2-fluoro-5-[(3,3,3-trifluoro-2-hydroxypropyl)carbamoyl]phenyl}imidazo[1,2-a]pyridine-3-carboxamide] | 1060 nM |
| O=C(NCC1(O)CCCCC1)c1cccc(NC(=O)c2cnc3ccccn23)c1 [F64] | 1100 nM |
| O=C(NC(CO)c1ccccc1)c1cccc(NC(=O)c2cnc3ccccn23)c1 (centres unmarked) [F65, N-{3-[(2-hydroxy-1-phenylethyl)carbamoyl]phenyl}imidazo[1,2-a]pyridine-3-carboxamide] | 1110 nM |
| O=C(N[C@H]1c2ccccc2C[C@H]1O)c1cccc(NC(=O)c2cnc3ccccn23)c1 [F68, N-(3-{[(1S,2R)-2-hydroxy-2,3-dihydro-1H-inden-1-yl]carbamoyl}phenyl)imidazo[1,2-a]pyridine-3-carboxamide] | 1520 nM |
| O=C(NCC1(O)CCCC1)c1cccc(NC(=O)c2cnc3ccccn23)c1 [F69] | 1850 nM |
| O=C(N[C@H]1c2ccccc2C[C@H]1O)c1ccc(F)c(NC(=O)c2cnc3ccc(COCC(F)(F)F)cn23)c1 [F70, N-(2-fluoro-5-{[(1S,2R)-2-hydroxy-2,3-dihydro-1H-inden-1-yl]carbamoyl}phenyl)-6-[(2,2,2-trifluoroethoxy)methyl]imidazo[1,2-a]pyridine-3-carboxamide] | 2090 nM |
| O=C(N[C@H]1c2ccccc2C[C@H]1O)c1ccc(F)c(NC(=O)c2cnc3cc(N4CCOCC4)ccn23)c1 [F71, N-(2-fluoro-5-{[(1S,2R)-2-hydroxy-2,3-dihydro-1H-inden-1-yl]carbamoyl}phenyl)-7-(morpholin-4-yl)imidazo[1,2-a]pyridine-3-carboxamide] | 2180 nM |
| O=C(NCC1(O)CCC1)c1cccc(NC(=O)c2cnc3ccccn23)c1 [F73, N-(3-{[(1-hydroxycyclobutyl)methyl]carbamoyl}phenyl)imidazo[1,2-a]pyridine-3-carboxamide] | 3270 nM |
| O=C(N[C@H]1CCC[C@H]1O)c1ccc(F)c(NC(=O)c2cnc3ccccn23)c1 [F74, N-(2-fluoro-5-{[(1S,2R)-2-hydroxycyclopentyl]carbamoyl}phenyl)imidazo[1,2-a]pyridine-3-carboxamide] | 3480 nM |
| O=C(N[C@@H]1CCC[C@H]1O)c1ccc(F)c(NC(=O)c2cnc3ccccn23)c1 [F75, N-(2-fluoro-5-{[(1R,2R)-2-hydroxycyclopentyl]carbamoyl}phenyl)imidazo[1,2-a]pyridine-3-carboxamide] | 3840 nM |
| O=C(N[C@H]1CC[C@H](O)CC1)c1cccc(NC(=O)c2cnc3ccccn23)c1 [F76, N-{3-[(4-hydroxycyclohexyl)carbamoyl]phenyl}imidazo[1,2-a]pyridine-3-carboxamide] | 9420 nM |
| O=C(NC1(CO)CCCC1)c1cccc(NC(=O)c2cnc3ccccn23)c1 [F77, N-(3-{[1-(hydroxymethyl)cyclopentyl]carbamoyl}phenyl)imidazo[1,2-a]pyridine-3-carboxamide] | 9450 nM |
| C[C@@H](CO)NC(=O)c1cccc(NC(=O)c2cnc3ccccn23)c1 [F78, N-(3-{[(2S)-1-hydroxypropan-2-yl]carbamoyl}phenyl)imidazo[1,2-a]pyridine-3-carboxamide] | > 10000 nM |

| Compound | IC50 |
| --- | --- |
| CC[C@@H](CO)NC(=O)c1cccc(NC(=O)c2cnc3ccccn23)c1 [F79, N-(3-{[(2S)-1-hydroxybutan-2-yl]carbamoyl}phenyl)imidazo[1,2-a]pyridine-3-carboxamide] | > 10000 nM |
| CC(C)[C@H](CO)NC(=O)c1cccc(NC(=O)c2cnc3ccccn23)c1 [F80, N-(3-{[(2R)-1-hydroxy-3-methylbutan-2-yl]carbamoyl}phenyl)imidazo[1,2-a]pyridine-3-carboxamide] | > 10000 nM |
| O=C(N[C@H]1c2ccccc2C[C@H]1O)c1ccc(F)c(NC(=O)c2cnc3ccc(-n4ccnc4)cn23)c1 [F81, N-(2-fluoro-5-{[(1S,2R)-2-hydroxy-2,3-dihydro-1H-inden-1-yl]carbamoyl}phenyl)-6-(1H-imidazol-1-yl)imidazo[1,2-a]pyridine-3-carboxamide] | > 10000 nM |
| O=C(N[C@@H]1CCCC[C@@H]1O)c1ccc(F)c(NC(=O)c2cnc3ccccn23)c1 [F82, N-(2-fluoro-5-{[(1R,2S)-2-hydroxycyclohexyl]carbamoyl}phenyl)imidazo[1,2-a]pyridine-3-carboxamide] | 304 nM |
| [2H]c1c([2H])c([2H])n2c(C(=O)Nc3cc(C(=O)N[C@@H]4c5ccccc5C[C@@H]4O)ccc3F)cnc2c1[2H] [F83, N-(2-fluoro-5-{[(1R,2S)-2-hydroxy-2,3-dihydro-1H-inden-1-yl]carbamoyl}phenyl)-5,6,7,8-tetrahydrogenioimidazo[1,2-a]pyridine-3-carboxamide] | 289 nM |
| Cc1ccc2ncc(C(=O)Nc3cc(C(=O)N[C@@H]4c5ccc(Cl)cc5C[C@@H]4O)ccc3F)n2c1 [F84, N-(5-{[(1R,2S)-5-chloro-2-hydroxy-2,3-dihydro-1H-inden-1-yl]carbamoyl}-2-fluorophenyl)-6-methylimidazo[1,2-a]pyridine-3-carboxamide] | 584 nM |
| Cc1ccc2ncc(C(=O)Nc3cc(C(=O)N[C@@H]4c5ccccc5C[C@@H]4O)c(Cl)cc3F)n2c1 [F85, N-(4-chloro-2-fluoro-5-{[(1R,2S)-2-hydroxy-2,3-dihydro-1H-inden-1-yl]carbamoyl}phenyl)-6-methylimidazo[1,2-a]pyridine-3-carboxamide] | 4020 nM |
| O=C(N[C@@H](CO)c1ccccc1)c1ccc(F)c(NC(=O)c2cnc3ccccn23)c1 [F86, N-(2-fluoro-5-{[(1R)-2-hydroxy-1-phenylethyl]carbamoyl}phenyl)imidazo[1,2-a]pyridine-3-carboxamide] | 1510 nM |
| Cc1ccc2ncc(C(=O)Nc3cc(C(=O)N[C@@H]4c5ccccc5C[C@@H]4O)c(F)cc3F)n2c1 [F87, N-(2,4-difluoro-5-{[(1R,2S)-2-hydroxy-2,3-dihydro-1H-inden-1-yl]carbamoyl}phenyl)-6-methylimidazo[1,2-a]pyridine-3-carboxamide] | 2860 nM |
| Cc1ccc2ncc(C(=O)Nc3cc(C(=O)N[C@@H]4c5ccccc5C[C@@H]4O)c(C)cc3F)n2c1 [F88, N-(2-fluoro-5-{[(1R,2S)-2-hydroxy-2,3-dihydro-1H-inden-1-yl]carbamoyl}-4-methylphenyl)-6-methylimidazo[1,2-a]pyridine-3-carboxamide] | 2190 nM |
| Cc1ccc2ncc(C(=O)Nc3cc(C(=O)N[C@@H]4c5cc(F)ccc5C[C@@H]4O)c(C)cc3F)n2c1 [F89, N-(2-fluoro-5-{[(1R,2S)-6-fluoro-2-hydroxy-2,3-dihydro-1H-inden-1-yl]carbamoyl}-4-methylphenyl)-6-methylimidazo[1,2-a]pyridine-3-carboxamide] | 1810 nM |
| O=C(NCC1(CO)CCCC1)c1ccc(F)c(NC(=O)c2cnc3ccccn23)c1 [F90, N-(2-fluoro-5-({[1-(hydroxymethyl)cyclopentyl]methyl}carbamoyl)phenyl]imidazo[1,2-a]pyridine-3-carboxamide] | 1760 nM |
| O=C(NCC1(O)CCC1)c1ccc(F)c(NC(=O)c2cnc3ccccn23)c1 [F91, N-(2-fluoro-5-{[(1-hydroxycyclobutyl)methyl]carbamoyl}phenyl)imidazo[1,2-a]pyridine-3-carboxamide] | 1740 nM |
| CSc1ccc([C@H](O)[C@H](CO)NC(=O)c2ccc(F)c(NC(=O)c3cnc4ccccn34)c2)cc1 [F92, N-(5-{[(1S,2S)-1,3-dihydroxy-1-[4-(methylsulfanyl)phenyl]propan-2-yl]carbamoyl}-2-fluorophenyl)imidazo[1,2-a]pyridine-3-carboxamide] | 283 nM |
| O=C(N[C@H]1CC[C@H](O)CC1)c1ccc(F)c(NC(=O)c2cnc3ccccn23)c1 [F93, N-{2-fluoro-5-[(4-hydroxycyclohexyl)carbamoyl]phenyl}imidazo[1,2-a]pyridine-3-carboxamide] | 1140 nM |
| O=C(NC[C@@H](O)c1ccccc1)c1ccc(F)c(NC(=O)c2cnc3ccccn23)c1 [F94, N-(2-fluoro-5-{[(2S)-2-hydroxy-2-phenylethyl]carbamoyl}phenyl)imidazo[1,2-a]pyridine-3-carboxamide] | 239 nM |
| C[C@H](NC(=O)c1ccc(F)c(NC(=O)c2cnc3ccccn23)c1)[C@@H](O)c1ccccc1 [F95, N-(2-fluoro-5-{[(1S,2S)-1-hydroxy-1-phenylpropan-2-yl]carbamoyl}phenyl)imidazo[1,2-a]pyridine-3-carboxamide] | 219 nM |
